From patent US20250041387A1, “POLYPEPTIDE SEQUENCE OF KDM6B AND APPLICATION OF KDM6B IN REGULATING AND CONTROLLING FUNCTION OF MESENCHYMAL STEM CELL” (BEIJING STOMATOLOGICAL HOSPITAL, CAPITAL MEDICAL UNIVERSITY, priority 2021, published 2025) come the findings set out here.

“And” between values parts separate entries of the source, which are not always exact repeats. Equal entries are not always repeated.

The test system of assay [1] is minipig periodontitis model with bone defect. The assay is described as follows: Minipig periodontitis model, new bone volume by CBCT three-dimensional reconstruction. The assay is classed as in vivo, Wuzhishan minipigs. The note with it: week 12 after injection, 60 μl per side; individual sides; FIG. 9; listed as 114 peptide. From the text: Method: An experimental minipig periodontitis model was established by creating bone defect and ligating silk threads. Specifically, minipigs were conventionally anaesthetized, and extraorally disinfected. The mandibular first permanent molar of the minipig was selected as the experimental tooth, which was subjected to intra-sulcal incision and vertical incision. The mucoperiosteal flap was opened, the mesia-buccal root of the mandibular first permanent molar of the minipig was exposed by bone removal, and a bone defect with a size of 3 mm×5 mm×7 mm was created. That is, 3 mm×5 mm×7 mm of the mesial proximal alveolar bone was removed, and the mesiobuccal root buccal bone plate and distal alveolar bone (3 mm×5 mm, the gingival depth was level with the mesial proximal surface) were removed. The suture in situ was performed. The experimental tooth neck was ligated with silk threads. […]
Drug injection treatment was performed 4 weeks after the modeling operation. The effect of bioactive polypeptide 114 on the regeneration and repair capacity of defected tissues mediated by stem cells in minipigs of periodontitis was assessed by comparing the clinical indicators and imaging examination after modeling (−4 w), 4 weeks after modeling without drug injection (0 w) and 3 months after drug treatment (12 w). […]

The test system is the same in assay [2]. The assay is described as follows: Minipig periodontitis model, clinical indicators (PD, AL, GR) and intraoral observation. The assay is classed as in vivo, Wuzhishan minipigs. Also noted: attachment loss (AL) / gingival recession (GR): unit not given here. Conditions: for attachment loss (AL) / gingival recession (GR) / probing depth (PD): individual sides. An excerpt:
Method: An experimental minipig periodontitis model was established by creating bone defect and ligating silk threads. Specifically, minipigs were conventionally anaesthetized, and extraorally disinfected. The mandibular first permanent molar of the minipig was selected as the experimental tooth, which was subjected to intra-sulcal incision and vertical incision. The mucoperiosteal flap was opened, the mesia-buccal root of the mandibular first permanent molar of the minipig was exposed by bone removal, and a bone defect with a size of 3 mm×5 mm×7 mm was created. That is, 3 mm×5 mm×7 mm of the mesial proximal alveolar bone was removed, and the mesiobuccal root buccal bone plate and distal alveolar bone (3 mm×5 mm, the gingival depth was level with the mesial proximal surface) were removed. The suture in situ was performed. The experimental tooth neck was ligated with silk threads. […] The successful establishment of periodontal bone defect model was verified by CT imaging and clinical examination.
12 Wuzhishan minipigs were used to establish periodontitis model, with a total of 24 sides, which were randomly divided into 3 groups. Each side was injected with a drug at an amount of 60 μl. Group 1: flap surgery with scraping+injection of sterile saline after modeling (untreated control group); group 2: flap surgery with scraping+injection of control polypeptide after modeling (control group); group 3: flap surgery with scraping+injection of bioactive polypeptide 114 after modeling (experimental group).
Drug injection treatment was performed 4 weeks after the modeling operation. The effect of bioactive polypeptide 114 on the regeneration and repair capacity of defected tissues mediated by stem cells in minipigs of periodontitis was assessed by comparing the clinical indicators and imaging examination after modeling (−4 w), 4 weeks after modeling without drug injection (0 w) and 3 months after drug treatment (12 w).
Clinical indicators (PD, AL and GR) detection and CT imaging were performed before the experiment, after modeling (−4 w) and 3 months after treatment (12 w).
Periodontal probing depth (PD): The depth of the periodontal pocket on the mesiobuccal side of the tooth was recorded at a probing pressure of 20-25 g.
Gingival recession (GR): The distance from the cemento-enamel junction to the gingival margin was measured using a periodontal probe. If there was gingival recession, the cementoenamel junction was exposed, and the gingival margin was located at the root of the cementoenamel junction, then the distance between the two was recorded as a positive value; if there was no gingival recession, the gingival margin was located at the crown of the cementoenamel junction, then the distance between the two was recorded as a negative value.
Attachment loss (AL): The degree of attachment loss was determined by subtracting GR from the periodontal pocket depth. If the two numbers were subtracted to zero, or the cementoenamel junction cannot be detected, it means there was no attachment loss. If the gingival recession caused the gingival margin to locate at the root of the cementoenamel junction, the two numbers were added to obtain the degree of the attachment loss. • 2.1 Probing depth (PD) was shown in Table 17 and FIG. 10.

Assay [3] relates to defected palatal mucosa of mice. Briefly: Palatal mucosa defect in mice. The assay is classed as in vivo, Balb/c mice. The note with it: for area of unhealed defected palatal mucosa: individual mice, FIG. 16.
Where [4] appears, read: 0 w, 4 weeks after modeling without drug injection, listed as 114 peptide.
Setting [5] is: 12 w after injection, listed as 114 peptide.

On to “FITC-(Acp)-ADLTISHCAADVVRAYGRKKRRQRRR [peptide 114]”, for which, in assay [1], the “new bone formation volume” value was “better and higher and 101.99 mm^3 and 80.68 mm^3 and 79.08 mm^3 and 80.48 mm^3 and 76.48 mm^3 and 85.49 mm^3”. Besides, the “attachment loss (AL)” value is 9.5 (3×) and 9 and 12 (2×) in assay [2] (setting [4]); “significantly lower and 3 and 2.5 and 1.5 and 4” in assay [2] (setting [5]). For the same substance, the “gingival recession (GR)” value in assay [2] (setting [4]) is 2.5 (3×) and 1 (2×) and 0.5 and 3 and 4.5; in assay [2] (setting [5]), “significantly lower and 0.5 and 1”; in assay [2] (−4 w, before drug injection, FIG. 12) it was 0. Further, the “probing depth (PD)” value in assay [2] (setting [4]) is 7.5 (3×) and 8.5 and 7 and 8 and 9 (2×); in assay [2] (setting [5]), “significantly lower and 2.5 and 2 and 0.5 and 1 and 3”; in assay [2] (−4 w, before drug injection, FIG. 10, listed as 114 peptide), 1 (7×) and 2. Further, in assay [2] (CT imaging, bone volume analysis and clinical examination), the “mesenchymal stem cells-mediated regeneration of periodontal tissue” value is recorded as “promoted”. The “restoration effect of soft tissues (intraoral images)” value in assay [2] (week 12 after injection, FIG. 14) is recorded as “better”. For the same substance, the “healing of defected palatal mucosa (observation)” value in assay [3] (compared to PBS group and control peptide group, FIG. 15) was “obviously healed”. Further, the “area of unhealed defected palatal mucosa” value is 5.782 and 7.254 and 8.231 and 5.52 and 6.401 in assay [3] (day 14); 2.259 and 0.3319 and 1.964 and 2.33 and 2.213 in assay [3] (day 21).
